In patent publication US8598132B2, “Glycosylated indolocarbazoles, method for obtaining same and uses thereof” (Universidad de Oviedo, priority 2008, dated 2013):

What was measured:
Assay type in all cases: cell-based
HT29 (colon) = experiment: SRB anti-tumour (growth inhibition) assay, HT29; conditions: Homo sapiens, HT-29, 48 h exposure, read-out: GI50 (concentration inhibiting 50% of cell growth)
Description: (§1) The compounds generated were tested against a series of cell lines from tumours. It quantitatively determined the cell growth and the viability, using a colorimetric assay type, using the reaction with sulforhodamine B (SRB), according to the technique described by Faircloth et al. (Journal of Tissue and Culture Methods 1988, 11, 201-205).
(§2) 96-well microtitre plates are inoculated with cells (5×10^3 cells per well) in aliquots of 195 μl of medium, incubating them during 18 h, in a medium without added compound, to allow the cells to adhere to the surface. Next, the compounds to be tested are added, in samples of 5 μl, at a range of concentrations of 10 to 10^−8 μg/ml, dissolved in DMSO/EtOH (0.2% in PS buffer). After 48 h exposure, the anti-tumour effect is measured using the Sulforhodamine B (SRB) technique: the cells are fixed adding 50 μl of cold […] (50%) (w/v) and it is incubated for 60 min. at 4° C. The plates are washed with deionized water and dried. 100 μl of SRB solution (0.4% w/v in 1% acetic acid) to each well and it is incubated during 10 min. at ambient temperature. The non-bound SRB is eliminated, washing with 1% acetic acid. The plates are air dried and the bound colorant is dissolved with Tris buffer. The optical densities are read in an automatic plate spectrophotometer reader at a wavelength of 490 nm.
(§3) For the compounds of formula (III), (IV), (V), (VI), (VII), (VIII), (IX) and the compounds of formula (XII), (XIII), (XIV), (XV), (XVI) and (XVIII).

A549 (lung) = experiment: SRB anti-tumour (growth inhibition) assay, A549; conditions: Homo sapiens, 48 h exposure, read-out: GI50 (concentration inhibiting 50% of cell growth)
Description: as §1, §2, §3

MDA-MB-231 (breast) = experiment: SRB anti-tumour (growth inhibition) assay, MDA-MB-231; conditions: Homo sapiens, 48 h exposure, read-out: GI50 (concentration inhibiting 50% of cell growth)
Description: as §1, §2, §3

Structure (SMILES) | GI50 (HT29 (colon)) | GI50 (A549 (lung)) | GI50 (MDA-MB-231 (breast))
CO[C@H]1[C@H](O)[C@@H](O)[C@H](n2c3c(Cl)cccc3c3c4c(c5c6cccc(Cl)c6[nH]c5c32)C(=O)NC4=O)O[C@@H]1CO [RBM, rebeccamycin, reference compound] | 1550 nM | 760 nM | –
CN[C@@H]1C[C@H]2O[C@@](C)([C@@H]1OC)n1c3ccccc3c3c4c(c5c6ccccc6n2c5c31)C(=O)NC4 [STP, staurosporine, reference compound] | 76 nM | 8 nM | 13 nM
